In patent US9951064B2, “Azaindazole compounds as inhibitors of T790M containing EGFR mutants” (Genentech, Inc., priority 2013, dated 2018) one finds Ki and EC50 data, which are given here for 17 compounds.

Each structure is given as a SMILES string. Read-outs that look alike come from different tables or passages of the source. Some results are limits rather than exact numbers.

For one assay, the target named is T1, EGFR T790M L858R (Homo sapiens, UniProt P00533, L858R/T790M).
T1 construct: purchased Life Technologies PV4879
T1 sequence (P00533 25-1210 T790M/L858R): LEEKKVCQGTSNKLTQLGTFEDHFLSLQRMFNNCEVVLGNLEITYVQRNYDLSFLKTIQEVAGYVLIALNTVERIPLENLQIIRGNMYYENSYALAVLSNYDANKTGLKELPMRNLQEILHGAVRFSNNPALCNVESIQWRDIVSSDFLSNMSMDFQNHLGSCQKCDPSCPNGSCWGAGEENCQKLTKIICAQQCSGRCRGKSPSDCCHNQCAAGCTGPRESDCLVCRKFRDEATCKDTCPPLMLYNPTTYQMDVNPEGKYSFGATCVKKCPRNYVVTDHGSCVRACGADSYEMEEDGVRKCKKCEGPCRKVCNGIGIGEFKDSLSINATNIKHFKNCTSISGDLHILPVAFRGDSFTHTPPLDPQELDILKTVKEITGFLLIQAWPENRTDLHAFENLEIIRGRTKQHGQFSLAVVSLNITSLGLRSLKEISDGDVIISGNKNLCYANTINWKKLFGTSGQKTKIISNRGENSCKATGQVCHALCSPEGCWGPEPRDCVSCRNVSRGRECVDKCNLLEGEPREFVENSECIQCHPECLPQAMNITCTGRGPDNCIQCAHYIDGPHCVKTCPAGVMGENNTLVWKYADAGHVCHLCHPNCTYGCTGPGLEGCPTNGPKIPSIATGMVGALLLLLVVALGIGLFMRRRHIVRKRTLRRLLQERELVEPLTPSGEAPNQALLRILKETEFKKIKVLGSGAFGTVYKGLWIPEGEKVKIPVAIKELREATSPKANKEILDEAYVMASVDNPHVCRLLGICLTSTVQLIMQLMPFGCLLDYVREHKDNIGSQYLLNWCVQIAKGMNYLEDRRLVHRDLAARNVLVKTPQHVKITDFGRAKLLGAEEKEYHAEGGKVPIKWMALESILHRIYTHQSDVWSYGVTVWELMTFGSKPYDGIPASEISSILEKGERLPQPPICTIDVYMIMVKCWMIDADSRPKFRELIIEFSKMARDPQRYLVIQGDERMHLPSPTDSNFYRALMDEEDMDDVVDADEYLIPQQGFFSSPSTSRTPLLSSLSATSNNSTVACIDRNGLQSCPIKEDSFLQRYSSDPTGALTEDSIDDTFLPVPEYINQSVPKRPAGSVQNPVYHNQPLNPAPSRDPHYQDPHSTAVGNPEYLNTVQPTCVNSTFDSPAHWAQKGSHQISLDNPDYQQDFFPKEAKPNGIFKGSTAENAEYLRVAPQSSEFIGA
In words: EGFR T790M L858R biochemical assay (Caliper mobility shift). The following applies: 5 μM ATP; apparent Ki (Morrison fit) converted by Cheng-Prusoff, Km of ATP 1.3 μM. A digest of the protocol: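 Caliper mobility-shift read-out, electrophoretic separation of substrate from product, after a 30-minute kinase reaction at 22 °C. EDTA at 80 mM terminates each reaction.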

In a further assay the target is T2, EGFR del746-750 T790M (Homo sapiens, UniProt P00533, DEL746-750/T790M).
T2 construct: purchased Carna Biosciences 08-528
T2 sequence (P00533 with tags, fused parts or gaps DEL746-750/T790M limits assumed): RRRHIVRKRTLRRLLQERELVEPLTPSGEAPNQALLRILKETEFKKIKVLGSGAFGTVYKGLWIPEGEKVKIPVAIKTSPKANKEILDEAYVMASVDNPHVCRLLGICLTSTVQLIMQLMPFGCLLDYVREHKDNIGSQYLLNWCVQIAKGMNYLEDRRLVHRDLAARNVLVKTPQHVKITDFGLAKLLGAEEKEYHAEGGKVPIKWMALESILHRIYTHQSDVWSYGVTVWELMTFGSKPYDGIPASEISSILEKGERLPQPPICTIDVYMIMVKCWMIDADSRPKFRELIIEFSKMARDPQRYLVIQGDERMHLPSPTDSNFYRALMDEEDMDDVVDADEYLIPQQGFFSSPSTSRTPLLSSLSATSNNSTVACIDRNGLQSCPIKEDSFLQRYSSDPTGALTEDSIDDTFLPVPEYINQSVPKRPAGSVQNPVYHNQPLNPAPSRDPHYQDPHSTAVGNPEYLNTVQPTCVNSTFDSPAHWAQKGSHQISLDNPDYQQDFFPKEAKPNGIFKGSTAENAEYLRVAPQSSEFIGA
In words: EGFR del746-750 T790M biochemical assay (Caliper mobility shift). Particulars: 5 μM ATP; apparent Ki (Morrison fit) converted by Cheng-Prusoff, Km of ATP 2.1 μM; read-out: EGFR(T790M/d746-750) Ki. A digest of the protocol: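 Caliper mobility-shift read-out, with product electrophoretically resolved from substrate and measured. Reactions were quenched with 80 mM EDTA after 30 min at 22 °C.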

Assay [1] has as its target T3, phosphor-EGFR in H1975(L585R/T790M) mutant EGFR expressing cells (Homo sapiens, UniProt P00533, L858R/T790M).
T3 construct: host or cells: NCI-H1975
In words: H1975 pEGFR MSD cellular assay. Type of assay: cell-based. Particulars: NCI-H1975 cells, serum starved, 1 hour compound incubation, pEGFR Tyr1068 MSD; read-out: HI975 pEGFR EC50. The essentials: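 Phospho-EGFR read by MSD electrochemiluminescence: capture with anti-pEGFR antibody (overnight, 4° C), detection with SULFO-TAG anti-total EGFR (1 hour, room temperature). Before lysis, H1975 cells starved of serum overnight got compound for 1 hour at 37° C, 0.5% DMSO final. EC50 via four-parameter logistic regression of percent inhibition.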

Assay [2] has as its system H1975 (EGFR T790M/L858R) cell proliferation. In words: H1975 proliferation assay (Cell Titer-Glo). It counts as cell-based. Particulars: NCI-H1975 cells, 72 hour incubation, read-out: H1975 antiproliferative EC50. The protocol:
H1975 Proliferation Assays
All cell culture reagents were purchased from Invitrogen/Gibco. Cells are cultured at 37° C. at 5% CO2 and split as recommended by ATCC.
In general terms: In ATP-based viability assays light output follows the ATP content of the culture.

T3 sequence (P00533 25-1210 T790M/L858R): as the sequence (P00533 25-1210 T790M/L858R) above

As for `CC(C)n1nc(N2CC[C@H](N)C2=O)c2cnc(Nc3ccnc(N4CCC(C)(O)CC4)n3)cc21` [Example 159, (S)-3-Amino-1-(6-(2-(4-hydroxy-4-methylpiperidin-1-yl)pyrimidin-4-ylamino)-1-isopropyl-1H-pyrazolo[4,3-c]pyridin-3-yl)pyrrolidin-2-one], the Ki at EGFR T790M L858R amounted to 11.6 nM; on EGFR del746-750 T790M it was 28.5 nM. Moreover, the EC50 (in general, the midpoint of the concentration-response curve) turned out to be 1100 nM in assay [1] and 9730 nM in assay [2] (Homo sapiens, NCI-H1975, 72 h).

Regarding `CC(n1nc(N2CC[C@@H](O)C2)c2cnc(Nc3ccnc(N4CC[C@](C)(O)[C@H](F)C4)n3)cc21)C(F)(F)F` (relative stereo) [Example 79, (3RS,4SR)-3-Fluoro-1-(4-(3-((R)-3-hydroxypyrrolidin-1-yl)-1-((S*)-1,1,1-trifluoropropan-2-yl)-1H-pyrazolo[4,3-c]pyridin-6-ylamino)pyrimidin-2-yl)-4-methylpiperidin-4-ol], the Ki on EGFR T790M L858R was 3.3 nM; on EGFR del746-750 T790M it was 5.9 nM. Also, the EC50 is 165 nM in assay [1] and 906 nM in assay [2] (Homo sapiens, NCI-H1975, 72 h).

For `CC(C)n1nc(N2CCOCC2)c2cnc(Nc3ccnc(NCC(C)(C)S(C)(=O)=O)n3)cc21` [Example 100, N^4-(1-Isopropyl-3-morpholin-4-yl-1H-pyrazolo[4,3-c]pyridin-6-yl)-N^2-(2-methanesulfonyl-2-methylpropyl)pyrimidine-2,4-diamine], the figures for the Ki at EGFR T790M L858R and on EGFR del746-750 T790M were 8.7 nM and 7.2 nM, respectively. For the same compound, the EC50 is 1060 nM in assay [1] and 1260 nM in assay [2] (Homo sapiens, NCI-H1975, 72 h).

Take `CCS(=O)(=O)n1cc(-c2nccc(Nc3cc4c(cn3)c(NC3CCOC3)nn4C(C)C)n2)cn1` (centres unmarked) [Example 38, N6-(2-(1-(ethylsulfonyl)-1H-pyrazol-4-yl)pyrimidin-4-yl)-1-isopropyl-N3-(tetrahydrofuran-3-yl)-1H-pyrazolo[4,3-c]pyridine-3,6-diamine]: the Ki on EGFR T790M L858R came out at 1.1 nM; at EGFR del746-750 T790M, 2.4 nM. Besides, the EC50 in assay [1] worked out at 40.8 nM; in assay [2] (Homo sapiens, NCI-H1975, 72 h), 272 nM.

On to `CC(C)n1nc(N2CC(O)CC2=O)c2cnc(Nc3ccnc(N4CC[C@H](O)[C@H](F)C4)n3)cc21` (mixture of isomers) [Example 173, (±)-1-(6-(2-(cis-3-Fluoro-4-hydroxypiperidin-1-yl)pyrimidin-4-ylamino)-1-isopropyl-1H-pyrazolo[4,3-c]pyridin-3-yl)-4-hydroxypyrrolidin-2-one], for which the Ki on EGFR T790M L858R turned out to be 2 nM; at EGFR del746-750 T790M, 4.8 nM. For the same compound, the EC50 in assay [1] was 1410 nM; in assay [2] (Homo sapiens, NCI-H1975, 72 h), over 10000 nM.

`CC(C)n1nc(N2CC[C@@H](O)C2)c2cnc(Nc3ccnc(-c4cnn(S(=O)(=O)C5CC5)c4)n3)cc21` [Example 114, (R)-1-(6-(2-(1-(Cyclopropylsulfonyl)-1H-pyrazol-4-yl)pyrimidin-4-ylamino)-1-isopropyl-1H-pyrazolo[4,3-c]pyridin-3-yl)pyrrolidin-3-ol]: the figures for the Ki on EGFR T790M L858R and at EGFR del746-750 T790M were 0.8 nM and 0.7 nM, respectively. The EC50 was found to be 5.6 nM in assay [1] and 190 nM in assay [2] (Homo sapiens, NCI-H1975, 72 h).

Take `C[C@H](n1nc(N2CC[C@@H](O)C2)c2cnc(Nc3ccnc(N4CC[C@H](O)[C@H](F)C4)n3)cc21)C(F)(F)F` (relative stereo) [Example 141, (±)-cis-3-Fluoro-1-(4-(3-((R)-3-hydroxypyrrolidin-1-yl)-1-((S*)-1,1,1-trifluoropropan-2-yl)-1H-pyrazolo[4,3-c]pyridin-6-ylamino)pyrimidin-2-yl)piperidin-4-ol]: the Ki at EGFR T790M L858R came out at 1.6 nM; at EGFR del746-750 T790M it was 2.7 nM. Moreover, the EC50 in assay [1] was determined as 89.2 nM; in assay [2] (Homo sapiens, NCI-H1975, 72 h), 769 nM.

Regarding `CCC(C)n1nc(N2CC3(COC3)C2)c2cnc(Nc3ccnc(N4CC[C@@H](O)[C@@H](F)C4)n3)cc21` (single isomer, unassigned) [Example 198, (3S,4R)-1-(4-((1-((S*)-sec-Butyl)-3-(2-oxa-6-azaspiro[3.3]heptan-6-yl)-1H-pyrazolo[4,3-c]pyridin-6-yl)amino)pyrimidin-2-yl)-3-fluoropiperidin-4-ol], the Ki is 1.5 nM on EGFR T790M L858R and 3.1 nM on EGFR del746-750 T790M. Moreover, the figures for the EC50 in assay [1] and in assay [2] were 16.4 nM and 348 nM, respectively.

As for `COC1CCN(c2nccc(Nc3cc4c(cn3)c(N3CC5(COC5)C3)nn4C(C)C)n2)CC1F` (racemic) [Example 23, (±)-2-(cis-3-Fluoro-4-methoxypiperidin-1-yl)pyrimidin-4-yl]-[1-isopropyl-3-(2-oxa-6-azaspiro[3.3]hept-6-yl)-1H-pyrazolo[4,3-c]pyridin-6-yl]amine], the Ki at EGFR T790M L858R was determined as 1.1 nM; at EGFR del746-750 T790M it was 3.9 nM. In addition, the EC50 in assay [1] was 23.1 nM; in assay [2] (Homo sapiens, NCI-H1975, 72 h), 248 nM.

Turning to `CC(C)n1nc(N2CC(CO)C2)c2cnc(Nc3ccnc(-c4cnn(S(=O)(=O)C5CC5)c4)n3)cc21` [Example 63, (1-(6-(2-(1-(cyclopropylsulfonyl)-1H-pyrazol-4-yl)pyrimidin-4-ylamino)-1-isopropyl-1H-pyrazolo[4,3-c]pyridin-3-yl)azetidin-3-yl)methanol], the Ki is under 0.6 nM on EGFR T790M L858R and 0.5 nM at EGFR del746-750 T790M. Besides, the concentration giving a half-maximal response (EC50) in assay [1] amounted to 18.5 nM; in assay [2] (Homo sapiens, NCI-H1975, 72 h), 271 nM.

Regarding `CC[C@H](C)n1nc(N2CC[C@H](O)C2)c2cnc(Nc3ccnc(N4CC[C@](C)(O)[C@H](F)C4)n3)cc21` (relative stereo) [Example 70, (3R*,4S*)-1-{4-[1-((S)-sec-Butyl)-3-((S)-3-hydroxypyrrolidin-1-yl)-1H-pyrazolo[4,3-c]pyridin-6-ylamino]pyrimidin-2-yl}-3-fluoro-4-methylpiperidin-4-ol], the Ki on EGFR T790M L858R came to 2 nM; at EGFR del746-750 T790M, 2.3 nM. Besides, the EC50 was 83 nM in assay [1] and 371 nM in assay [2] (Homo sapiens, NCI-H1975, 72 h).

Turning to `CC(C)n1nc(N2CCC(O)C2=O)c2cnc(Nc3ccnc(-c4cnn(S(=O)(=O)C5CC5)c4)n3)cc21` (stereo in doubt) [Example 199, (S)-1-(6-((2-(1-(Cyclopropylsulfonyl)-1H-pyrazol-4-yl)pyrimidin-4-yl)amino)-1-isopropyl-1H-pyrazolo[4,3-c]pyridin-3-yl)-3-hydroxypyrrolidin-2-one], the Ki on EGFR T790M L858R and at EGFR del746-750 T790M was 1.5 nM throughout. Moreover, the EC50 in assay [1] was 230 nM; in assay [2] (Homo sapiens, NCI-H1975, 72 h) it was 630 nM.

Consider `CC(n1nc(N2CCNC2=O)c2cnc(Nc3ccnc(N4CCC(C)(O)CC4)n3)cc21)C(F)(F)F` (centres unmarked) [Example 171, 1-(6-(2-(4-Hydroxy-4-methylpiperidin-1-yl)pyrimidin-4-ylamino)-1-(1,1,1-trifluoropropan-2-yl)-1H-pyrazolo[4,3-c]pyridin-3-yl)imidazolidin-2-one], for which the Ki was 6.2 nM on EGFR T790M L858R and 33.1 nM at EGFR del746-750 T790M. For the same compound, the EC50 was found to be 703 nM in assay [1] and 1070 nM in assay [2] (Homo sapiens, NCI-H1975, 72 h).

For the compound `COC1CCN(c2nccc(Nc3cc4c(cn3)c(N3CCCC3)nn4C(C)C)n2)CC1` [Example 15, 1-Isopropyl-N-(2-(4-methoxypiperidin-1-yl)pyrimidin-4-yl)-3-(pyrrolidin-1-yl)-1H-pyrazolo[4,3-c]pyridin-6-amine], the Ki on EGFR T790M L858R turned out to be 1.2 nM; on EGFR del746-750 T790M, 2.8 nM. Moreover, the EC50 is 26.6 nM in assay [1] and 380 nM in assay [2] (Homo sapiens, NCI-H1975, 72 h).

With `CCC(C)n1nc(N2CCNC2=O)c2cnc(Nc3ccnc(NCC(C)(C)S(C)(=O)=O)n3)cc21` (racemic) [Example 101, 1-{1-sec-Butyl-6-[2-(2-methanesulfonyl-2-methylpropylamino)pyrimidin-4-ylamino]-1H-pyrazolo[4,3-c]pyridin-3-yl}imidazolidin-2-one], the Ki is 2.3 nM on EGFR T790M L858R and 2.4 nM at EGFR del746-750 T790M. Also, the EC50 in assay [1] worked out at 568 nM; in assay [2] (Homo sapiens, NCI-H1975, 72 h), 1830 nM.

On to `CC(n1nc(N2CC3(COC3)C2)c2cnc(Nc3ccnc(-c4cnn(S(=O)(=O)C5CC5)c4)n3)cc21)C(F)(F)F` (centres unmarked) [Example 172, N-(2-(1-(Cyclopropylsulfonyl)-1H-pyrazol-4-yl)pyrimidin-4-yl)-3-(2-oxa-6-azaspiro[3.3]heptan-6-yl)-1-(1,1,1-trifluoropropan-2-yl)-1H-pyrazolo[4,3-c]pyridin-6-amine], for which the Ki at EGFR T790M L858R was 1.8 nM; at EGFR del746-750 T790M, 2.5 nM. The concentration for a half-maximal effect (EC50) in assay [1] came to 154 nM; in assay [2] (Homo sapiens, NCI-H1975, 72 h), 699 nM.

As for `COC1CCN(c2nccc(Nc3cc4c(cn3)c(N3CC5(COC5)C3)nn4C(C)C)n2)CC1` [Example 2, 1-Isopropyl-N-(2-(4-methoxypiperdin-1-yl)pyrimidin-4-yl)-3-(2-oxa-6-azaspiro[3.3]heptan-6-yl)-1H-pyrazolo[4,3-c]pyridine-6-amine], the Ki at EGFR T790M L858R was determined as 2.1 nM; at EGFR del746-750 T790M, 9.7 nM. Besides, the EC50 in assay [1] was determined as 81.7 nM; in assay [2] (Homo sapiens, NCI-H1975, 72 h), 388 nM.
